Patent publication US20120020915A1, “Compounds and Methods for Treating Cancer and Diseases of the Central Nervous System” (QUEENS UNIVERSITY AT KINGSTON, priority 2007, published 2012)
Counter-ions that a name gives are not always drawn. Like-named read-outs stand apart in the source and are kept apart here.

Experiments:
HO-1 (rat spleen) = molecular target: T1, HO-1 (rat spleen) (Rattus norvegicus, UniProt P06762); experiment: HO enzymatic activity, rat spleen microsomal fraction (CO formation from methemalbumin); assay type: biochemical
T1 construct: Spleen microsomes were used as a source of HO-1; from tissue; host or cells: spleen microsomal fraction of adult male Sprague-Dawley rats
T1 sequence (P06762 1-289): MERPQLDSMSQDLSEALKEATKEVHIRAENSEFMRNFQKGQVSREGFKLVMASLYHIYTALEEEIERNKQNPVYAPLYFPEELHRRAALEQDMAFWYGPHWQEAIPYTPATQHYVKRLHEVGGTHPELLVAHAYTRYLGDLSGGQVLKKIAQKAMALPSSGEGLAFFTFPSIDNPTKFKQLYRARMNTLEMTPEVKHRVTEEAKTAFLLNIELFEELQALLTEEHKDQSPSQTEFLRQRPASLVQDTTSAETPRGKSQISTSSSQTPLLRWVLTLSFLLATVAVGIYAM
Experimental: (§1) Incubations for HO activity analysis were done under conditions for which the rate of CO formation (pmol CO×min^−1×mg protein^−1) was linear with respect to time and microsomal protein concentration. Briefly, reaction mixtures (150 μL) consisting of 100 mM phosphate buffer (pH 7.4), 50 μM methemalbumin, and 1 mg/mL protein were pre-incubated with the inhibitors at final concentrations ranging from 0.1-100 μM for 10 minutes at 37° C. Reactions were initiated by adding NADPH at a final concentration of 1 mM and incubations were performed for an additional 15 minutes at 37° C.
(§2) Incubations for HO activity analysis were done under conditions for which the rate of CO formation (pmol CO/mg protein/minute) was linear with respect to time and microsomal protein concentration. Briefly, reaction mixtures (150 μL) consisting of 100 mM phosphate buffer (pH 7.4), 50 μM methemalbumin and 1 mg/mL protein were pre-incubated with the vehicle (ethanol or water in which the inhibitors were dissolved), or inhibitors at final concentrations ranging from 0.1-1000 μM for 10 minutes at 37° C. Reactions were initiated by adding β-NADPH at a final concentration of 1 mM and incubations were carried out for an additional 15 minutes at 37° C. Reactions were stopped by instantly freezing the reaction mixture on pulverized dry ice and CO formation was measured by gas chromatography using a TA 3000R Process Gas Analyzer (Trace Analytical/Ametek, Newark, Del., USA).
(§3) The values on the abscissa represent the decimal logarithm of the inhibitor's concentration (in μM), whereas the values of the activity on the ordinate are expressed as a percentage of the control experiments without inhibitor.
(§4) The IC50 values for the replicate experiments were employed to generate the reported standard deviation value.

HO-2 (rat brain) = molecular target: T2, HO-2 (rat brain) (Rattus norvegicus, UniProt P23711); experiment: HO enzymatic activity, rat brain microsomal fraction (CO formation from methemalbumin); assay type: biochemical
T2 construct: brain microsomes were used as a source of HO-2; from tissue; host or cells: brain microsomal fraction of adult male Sprague-Dawley rats
T2 sequence (P23711 1-315): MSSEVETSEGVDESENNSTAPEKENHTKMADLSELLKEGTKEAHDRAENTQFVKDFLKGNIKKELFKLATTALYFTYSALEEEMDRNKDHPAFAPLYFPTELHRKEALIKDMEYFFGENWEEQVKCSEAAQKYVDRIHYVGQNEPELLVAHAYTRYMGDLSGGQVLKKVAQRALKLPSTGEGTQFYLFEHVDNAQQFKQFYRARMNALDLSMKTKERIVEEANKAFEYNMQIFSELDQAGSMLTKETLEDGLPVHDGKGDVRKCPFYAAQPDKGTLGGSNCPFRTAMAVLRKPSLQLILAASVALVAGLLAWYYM
Experimental: as §1, §2, §3, §4

[1] = CO formation from methemalbumin, mean ± SD of replicate experiments, read-out: IC50 HO-1 (rat spleen/μM)
[2] = CO formation from methemalbumin, mean ± SD of replicate experiments, read-out: IC50 HO-2 (rat brain)/μM)
[3] = IC50 HO-1 (rat spleen/μM), average ± SD of replicate experiments
[4] = IC50 HO-2 (rat brain)/μM), average ± SD of replicate experiments
[5] = average ± SD of replicate experiments, read-out: IC50 HO-1 (rat spleen/μM)
[6] = average ± SD of replicate experiments, read-out: IC50 HO-2 (rat brain)/μM)

Structure (SMILES)	IC50 (HO-1 (rat spleen); [1]) [µM]	IC50 (HO-2 (rat brain); [2]) [µM]	IC50 (HO-1 (rat spleen); [5]) [µM]	IC50 (HO-1 (rat spleen); [3]) [µM]	IC50 (HO-2 (rat brain); [4]) [µM]	also measured
CCCCn1ccnc1 [QC-122, 1-Butyl-1H-imidazole]	> 100	> 100	–	–	–	–
COC(=O)c1ncn(CC(=O)CCc2ccccc2)c1C(=O)OC [QC-123, 1-(2-Oxo-4-phenyl-butyl)-1H-imidazole-4,5-dicarboxylic acid dimethyl ester hydrochloride]	–	–	–	–	–	IC50 (HO-1 (rat spleen); IC50 HO-1 (rat spleen/μM), CO formation from methemalbumin, mean ± SD of replicate experiments): > 100 µM; IC50 (HO-2 (rat brain); IC50 HO-2 (rat brain)/μM), CO formation from methemalbumin, mean ± SD of replicate experiments): > 100 µM
O=C(CCc1ccccc1)Cn1cnc(-c2ccccc2)c1 [QC-124, 4-Phenyl-1-(4-phenyl-imidazol-1-yl)-butan-2-one hydrochloride]	9 ± 2	145 ± 54	–	–	–	–
CS(=O)(=O)c1nccn1CC(=O)CCc1ccccc1 [QC-125, 1-(2-Methanesulfonyl-imidazol-1-yl)-4-phenyl-butan-2-one]	> 100	> 100	–	–	–	–
O=C(Cn1ccnc1)c1ccccc1 [QC-141, 2-Imidazol-1-yl-1-phenyl-ethanone hydrochloride]	–	–	–	28 ± 4	> 100	–
O=C(Cn1ccnc1)c1ccc(Cl)cc1 [QC-142, 1-(4-Chlorophenyl)-2-imidazol-1-yl-ethanone hydrochloride]	–	–	–	4 ± 2	20 ± 8	–
Nc1nc2cc(OCCCCN3CCCCC3)ccc2[nH]1 [QC-146, 5-(4-Piperidin-1-yl-butoxy)-1H-benzoimidazol-2-ylamine dihydrochloride 3/2 hydrate]	–	–	> 100	–	–	IC50 (HO-2 (rat brain); [6]): > 100 µM
Cn1c(NCCc2c[nH]cn2)nc2ccccc21 [QC-147, [2-(1H-Imidazol-4-yl)-ethyl]-(1-methyl-1H-benzoimidazol-2-yl)-amine dihydrochloride]	–	–	–	> 100	> 100	–
CCN1CCN(c2nc3ccccc3[nH]2)CC1 [QC-148, 2-(4-Ethyl-piperazin-1-yl)-1H-benzoimidazole dihydrochloride hemihydrate]	–	–	> 100	–	–	IC50 (HO-2 (rat brain); [6]): > 100 µM
N#Cc1ncn(CC(=O)CCc2ccccc2)c1C#N [QC-154, 1-(2-Oxo-4-phenylbutyl)-1H-imidazole-4,5-dicarbonitrile hydrochloride]	–	–	–	> 100	> 100	–
O=C(Cn1cncn1)c1ccccc1 [QC-157, 1-Phenyl-2-[1,2,4]triazol-1-yl-ethanone hydrochloride]	–	–	–	12 ± 0.9	> 100	–
O=C(Cn1cncn1)c1ccc(Cl)cc1 [QC-158, 1-(4-Chlorophenyl)-2-[1,2,4]triazol-1-yl-ethanone hydrochloride]	–	–	–	2.2 ± 0.5	122 ± 0.1	–
O=C(Cn1ccnc1)c1ccc([N+](=O)[O-])cc1 [QC-159, 2-Imidazol-1-yl-1-(4-nitro-phenyl)-ethanone hydrochloride]	–	–	–	2.5 ± 0.2	> 100	–
O=C(CCc1ccccc1)Cn1ccnc1[N+](=O)[O-] [QC-160, 1-(2-Nitro-imidazol-1-yl)-4-phenyl-butan-2-one hydrochloride]	–	–	–	> 100	> 100	–
O=C(Cn1ccnc1)c1ccc(Br)cc1 [QC-161, 1-(4-Bromophenyl)-2-imidazol-1-yl-ethanone hydrochloride]	–	–	–	3.2 ± 0.8	14 ± 2	–
O=C(Cn1ccnc1)c1ccc2ccccc2c1 [QC-162, 2-Imidazol-1-yl-1-napthalen-2-yl-ethanone hydrochloride]	–	–	1.9 ± 0.1	–	–	IC50 (HO-2 (rat brain); [6]): 12 ± 0.05 µM
COc1ccc(C(=O)Cn2ccnc2)cc1 [QC-163, 2-Imidazol-1-yl-1-(4-methoxyphenyl)-ethanone hydrochloride]	–	–	32 ± 4	–	62 ± 3	–
Cc1ccc(C(=O)Cn2ccnc2)cc1 [QC-165, 2-Imidazol-1-yl-1-p-tolyl-ethanone hydrochloride]	–	–	–	17 ± 4	69 ± 16	–
O=C(Cn1ccnc1)c1ccc(-c2ccccc2)cc1 [QC-166, 1-Biphenyl-4-yl-2-imidazol-1-yl-ethanone hydrochloride]	–	–	–	2.1 ± 0.7	3 ± 0.7	–
N#CSC[C@@H]1CO[C@@](CCc2ccc(Cl)cc2)(Cn2ccnc2)O1 [QC-197, 1-{2-[2-(4-Chloro-phenyl)-ethyl]-4-thiocyanatomethyl-[1,3]dioxolan-2-ylmethyl}-1H-imidazole hydrochloride]	–	–	–	3 ± 0.9	> 100	–
Brc1ccc(CCCCn2ccnc2)cc1 [QC-199, 1-[4-(4-Bromo-phenyl)-butyl]-1H-imidazole hydrochloride]	–	–	–	0.25 ± 0.02	6.7 ± 0.3	–

Second part, led by results:

IC50 (HO-1 (rat spleen); [1]) [µM]	IC50 (HO-2 (rat brain); [2]) [µM]	IC50 (HO-1 (rat spleen); [5]) [µM]	Structure (SMILES)	IC50 (HO-1 (rat spleen); [3]) [µM]	IC50 (HO-2 (rat brain); [4]) [µM]	also measured
> 100	> 100	–	O=C(CCc1ccccc1)Cn1cnc([N+](=O)[O-])c1 [QC-127, 1-(4-Nitro-imidazol-1-yl)-4-phenyl-butan-2-one]	–	–	–
> 100	> 100	–	O=C(CCc1ccccc1)Cn1cnc2ccccc21 [QC-128, 1-Benzoimidazol-1-yl-4-phenyl-butan-2-one]	–	–	–
> 100	> 100	–	O=C(CCc1ccccc1)Cn1nnc2ccccc21 [QC-131, 1-Benzotriazol-1-yl-4-phenyl-butan-2-one]	–	–	–
> 100	> 100	–	COC(=O)c1cn(CC(=O)CCc2ccccc2)cn1 [QC-133, 1-(2-Oxo-4-phenyl-butyl)-1H-imidazole-4-carboxylic acid methyl ester]	–	–	–
55 ± 2	> 100	–	COC(=O)c1cncn1CC(=O)CCc1ccccc1 [QC-134, 3-(2-Oxo-4-phenyl-butyl)-3H-imidazole-4-carboxylic acid methyl ester]	–	–	–
> 100	> 100	–	COC(=O)c1ncn(CC(=O)CCc2ccccc2)n1 [QC-135, 1-(2-Oxo-4-phenyl-butyl)-1H-[1,2,4]triazole-3-carboxylic acid methyl ester]	–	–	–
> 100	> 100	–	COC(=O)c1ncnn1CC(=O)CCc1ccccc1 [QC-136, 2-(2-Oxo-4-phenyl-butyl)-2H-[1,2,4]triazole-3-carboxylic acid methyl ester]	–	–	–
> 100	> 100	–	CC(=O)NCCc1c[nH]cn1 [QC-138, N-[2-(1H-Imidazol-4-yl)-ethyl]-acetamide]	–	–	–
–	–	> 100	c1ccc2[nH]c(NCCCCCN3CCCCC3)nc2c1 [QC-144, (1H-Benzoimidazol-2-yl)-(5-piperidin-1-yl-pentyl)-amine]	–	–	IC50 (HO-2 (rat brain); [6]): > 100 µM
–	–	> 200	c1ccc2[nH]c(NC3CCC(c4cnc[nH]4)CC3)nc2c1 (stereo not drawn) [QC-149, (1H-Benzoimidazol-2-yl)-[4-(3H-imidazol-4-yl)-cyclohexyl]-amine dihydrochloride]	–	–	IC50 (HO-2 (rat brain); [6]): > 200 µM
–	–	> 100	O=C(CCc1ccccc1)Cn1cnc([N+](=O)[O-])n1 [QC-152, 1-(3-Nitro-[1,2,4]triazol-1-yl)-4-phenyl-butan-2-one]	–	–	IC50 (HO-2 (rat brain); [6]): > 100 µM
–	–	> 100	CS(=O)(=O)c1ncn(CC(=O)CCc2ccccc2)n1 [QC-155, 1-(3-Methanesulfonyl-[1,2,4]triazol-1-yl)-4-phenyl-butan-2-one]	–	–	IC50 (HO-2 (rat brain); [6]): > 100 µM
–	–	> 100	CS(=O)(=O)c1ncnn1CC(=O)CCc1ccccc1 [QC-156, 1-(5-Methanesulfonyl-[1,2,4]triazol-1-yl)-4-phenyl-butan-2-one]	–	–	IC50 (HO-2 (rat brain); [6]): > 100 µM
–	–	> 100	CCOC(=O)Cc1nnn(CC(=O)CCc2ccccc2)n1 [QC-178, [2-(2-Oxo-4-phenyl-butyl)-2H-tetrazol-5-yl]-acetic acid ethyl ester]	–	–	IC50 (HO-2 (rat brain); [6]): > 100 µM
–	–	21 ± 3	NC[C@@H]1CO[C@@](CCc2ccccc2)(Cn2ccnc2)O1 [QC-190, {2-[2-(phenyl)-ethyl]-2-imidazol-1-ylmethyl-[1,3]dioxolan-4-yl}-methylamine dihydrochloride]	–	–	IC50 (HO-2 (rat brain); [6]): > 100 µM
